Experimental data published in patent publication US20160046592A1, “PHARMACEUTICAL COMPOSITION FOR THE TREATMENT OF DIABETES” (Ajinomoto Co., Inc., priority 2013, published 2016).
Counter-ions that a name gives are not always drawn.

What follows are compounds tested against T1, PPAR-α (Homo sapiens, UniProt Q07869) (assay: Measurement of PPAR-α activity (GAL4 luciferase reporter assay in CV-1 cells)). Conditions: 100(A/B): A = maximum PPAR-α activity of test compound at 3, 10, 30 and 100 μM, B = activity of the compound of WO/2011/058154 at 100 μM, 18 to 20 hours, read-out: Relative fold induction (%) of PPAR α.
T1 construct: expressed in transfected cells; host or cells: CV-1 (African green monkey kidney)
T1 sequence (Q07869 167-468): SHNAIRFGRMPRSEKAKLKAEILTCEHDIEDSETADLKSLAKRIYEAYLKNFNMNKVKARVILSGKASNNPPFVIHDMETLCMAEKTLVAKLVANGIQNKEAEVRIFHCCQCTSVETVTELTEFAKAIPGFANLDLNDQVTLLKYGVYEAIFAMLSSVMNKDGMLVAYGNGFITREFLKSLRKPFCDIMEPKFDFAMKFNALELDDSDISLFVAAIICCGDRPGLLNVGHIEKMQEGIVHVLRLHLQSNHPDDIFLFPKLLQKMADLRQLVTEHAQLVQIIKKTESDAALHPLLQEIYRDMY
Assay type: cell-based
Description: The PPAR-α activity was measured according to the published article (THE JOURNAL OF BIOLOGICAL CHEMISTRY Vol. 270, No 0.22: 12953-12956, 1995).
Plasmids used for the PPAR-α activity measurement were constructed as follows. A luciferase expression plasmid (UAS×5-TK-Luc) used was obtained by introducing a sequence in which five yeast GAL4-binding sequences are linked in tandem into a portion upstream of a thymidine kinase promoter of pTAL-Luc (Takara Bio Inc., 6252-1). A PPAR-α receptor expression plasmid (hGR-GAL4-hPPARα) used was obtained by introducing a human GR N-terminal region (1-76aa), a yeast GAL4 DNA-binding region (1-147aa), and a PPARα ligand-binding region (167-468aa) between Not I and Sal I sites of pExchange-1 Core Vector (Invitrogen, 211176).
A reporter assay was conducted by the following method using African green monkey kidney-derived CV-1 cells. The CV-1 cells were seeded in a 96-well plate (Thermo Fisher Scientific K.K., 4938) at 2×10^4 cells/well by using a 10% FBS-containing DMEM (NACALAI TESQUE, INC., 0845874) medium. After culturing under conditions of 37° C. and 5% CO2 for 2 hours, the cells were transfected with the plasmids. The transfection was conducted by using Lipofectamine LTX (Invitrogen, 15338-100) according to the attached manual. The plasmid solution was prepared by adding a mixture solution of the luciferase expression plasmid and the PPAR-α receptor expression plasmid to OPTI-MEM I (Invitrogen, 11058-021). After the transfection, the test compound was added, and the cells were cultured at 37° C. in the presence of 5% CO2 for 18 to 20 hours. After the culturing, the luciferase activity was measured with Luminescensor JNR (ATTO) by using Bright-Glo (Promega, E2620).
The fold induction of PPAR-α by each test compound was calculated by the following method. A relative fold induction (%) of PPAR-α by the test compound was defined as 100 (A/B), where A represents the maximum value of the PPAR-α activities of the test compound at 3 μM, 10 μM, 30 μM, and 100 μM, and B represents the PPAR-α activity of the compound of WO/2011/058154 at 100 μM.

Emax	SMILES
22%	CSc1cc(F)c(F)cc1-c1ccc(OCc2cccc(C(=O)N(CC(=O)O)Cc3ccon3)c2)cc1 [Example 66, 2-[[3-[[4-(4,5-Difluoro-2-methylsulfanyl-phenyl)phenoxy]methyl]benzoyl]-(isoxazol-3-ylmethyl)amino]acetic Acid]
6.7%	CSc1cc(F)c(F)cc1-c1ccc(OCc2cccc(C(=O)N3C(C(N)=O)CC[C@H]3C(=O)O)c2)cc1 (single isomer, unassigned) [Example 57, (2S,5R) or (2S,5S)-5-Carbamoyl-1-[3-[[4-(4,5-difluoro-2-methylsulfanyl-phenyl)phenoxy]methyl]benzoyl]pyrrolidine-2-carboxylic Acid]
6.4%	CC(=O)N1CCC(CN(CC(=O)O)C(=O)c2cccc(COc3ccc(-c4cc(F)c(F)c5ccoc45)cc3)c2)CC1 [Example 81, 2-[(1-Acetyl-4-piperidyl)methyl-[3-[[4-(4,5-difluorobenzofuran-7-yl)phenoxy]methyl]benzoyl]amino]acetic Acid]
13%	CSc1cc(F)c(F)cc1-c1ccc(OCc2cccc(C(=O)N(CCNS(C)(=O)=O)CC(=O)O)c2)cc1 [Example 17, 2-[[3-[[4-(4,5-Difluoro-2-methylsulfanyl-phenyl)phenoxy]methyl]benzoyl]-[2-(methanesulfonamido)ethyl]amino]acetic Acid]
12%	NC(=O)CN(CC(=O)O)C(=O)c1cccc(COc2ccc(-c3cc(F)c(F)c4ccoc34)cc2)c1 [Example 1, 2-[(2-Amino-2-oxo-ethyl)-[3-[[4-(4,5-difluorobenzofuran-7-yl)phenoxy]methyl]benzoyl]amino]acetic Acid]
40%	CS(=O)(=O)CCCN(CC(=O)O)C(=O)c1cccc(COc2ccc(-c3cc(F)c(F)c4ccoc34)cc2)c1 [Example 77, 2-[[3-[[4-(4,5-Difluorobenzofuran-7-yl)phenoxy]methyl]benzoyl]-(3-methylsulfonylpropyl)amino]acetic Acid]
8.4%	CSc1cc(F)c(F)cc1-c1ccc(OCc2cccc(C(=O)N(CCS(C)(=O)=O)CC(=O)O)c2)cc1 [Example 31, 2-[[3-[[4-(4,5-Difluoro-2-methylsulfanyl-phenyl)phenoxy]methyl]benzoyl]-(2-methylsulfonylethyl)amino]acetic Acid]
23%	CC(C)(O)CCN(CC(=O)O)C(=O)c1cccc(COc2ccc(-c3cc(F)c(F)c4ccoc34)cc2)c1 [Example 18, 2-[[3-[[4-(4,5-Difluorobenzofuran-7-yl)phenoxy]methyl]benzoyl]-(3-hydroxy-3-methyl-butyl)amino]acetic Acid]
10%	CSc1cc(F)c(F)cc1-c1ccc(OCc2cccc(C(=O)N(CC(=O)O)CC(=O)O)c2)cc1 [Example 27, 2-[Carboxymethyl-[3-[[4-(4,5-difluoro-2-methylsulfanyl-phenyl)phenoxy]methyl]benzoyl]amino]acetic Acid]
11%	CSc1cc(F)c(F)cc1-c1ccc(OCc2cccc(C(=O)N(CCCN(C)C)CC(=O)O)c2)cc1 [Example 26, 2-[[3-[[4-(4,5-Difluoro-2-methylsulfanyl-phenyl)phenoxy]methyl]benzoyl]-[3-(dimethylamino)propyl]amino]acetic Acid Trifluoroacetate]
5.3%	CN(C)CCN(CC(=O)O)C(=O)c1cccc(COc2ccc(-c3cc(F)c(F)c4ccoc34)cc2)c1 [Example 13, 2-[[3-[[4-(4,5-Difluorobenzofuran-7-yl)phenoxy]methyl]benzoyl]-(2-dimethylaminoethyl)amino]acetic Acid Trifluoroacetate]
20%	CSc1cc(F)c(F)cc1-c1ccc(OCc2cccc(C(=O)N(CC(=O)O)Cc3cscn3)c2)cc1 [Example 71, 2-[[3-[[4-(4,5-Difluoro-2-methylsulfanyl-phenyl)phenoxy]methyl]benzoyl]-(thiazol-4-ylmethyl)amino]acetic Acid]
22%	CSc1cc(F)c(F)cc1-c1ccc(OCc2cccc(C(=O)N(CC(=O)O)Cc3cccnc3)c2)cc1 [Example 39, 2-[[3-[[4-(4,5-Difluoro-2-methylsulfanyl-phenyl)phenoxy]methyl]benzoyl]-(3-pyridylmethyl)amino]acetic Acid Trifluoroacetate]
13%	CCN(CC)CCN(CC(=O)O)C(=O)c1cccc(COc2ccc(-c3cc(F)c(F)cc3SC)cc2)c1 [Example 24, 2-[2-Diethylaminoethyl-[3-[[4-(4,5-difluoro-2-methylsulfanyl-phenyl)phenoxy]methyl]benzoyl]amino]acetic Acid Trifluoroacetate]
11%	O=C(O)[C@@H]1[C@H](O)CCN1C(=O)c1cccc(COc2ccc(-c3cc(F)c(F)c4ccoc34)cc2)c1 [Example 3, (2S,3R)-1-[3-[[4-(4,5-Difluorobenzofuran-7-yl)phenoxy]methyl]benzoyl]-3-hydroxy-pyrrolidine-2-carboxylic Acid]
12%	CSc1cc(F)c(F)cc1-c1ccc(OCc2cccc(C(=O)N3C(CC#N)CC[C@H]3C(=O)O)c2)cc1 (stereo partly drawn) [Example 72, (2S)-5-(Cyanomethyl)-1-[3-[[4-(4,5-difluoro-2-methylsulfanyl-phenyl)phenoxy]methyl]benzoyl]pyrrolidine-2-carboxylic Acid]
16%	CSc1cc(F)c(F)cc1-c1ccc(OCc2cccc(C(=O)N(CCC#N)CC(=O)O)c2)cc1 [Example 7, 2-[2-Cyanoethyl-[3-[[4-(4,5-difluoro-2-methylsulfanyl-phenyl)phenoxy]methyl]benzoyl]amino]acetic Acid]
19%	CSc1cc(F)c(F)cc1-c1ccc(OCc2cccc(C(=O)N(CC(=O)O)Cc3coc(C)n3)c2)cc1 [Example 67, 2-[[3-[[4-(4,5-Difluoro-2-methylsulfanyl-phenyl)phenoxy]methyl]benzoyl]-[(2-methyloxazol-4-yl)methyl]amino]acetic Acid]
22%	COC(C)(C)CN(CC(=O)O)C(=O)c1cccc(COc2ccc(-c3cc(F)c(F)cc3SC)cc2)c1 [Example 23, 2-[[3-[[4-(4,5-Difluoro-2-methylsulfanyl-phenyl)phenoxy]methyl]benzoyl]-(2-methoxy-2-methyl-propyl)amino]acetic Acid]
4.7%	O=C(O)CN(CC1CCNCC1)C(=O)c1cccc(COc2ccc(-c3cc(F)c(F)c4ccoc34)cc2)c1 [Example 12, 2-[[3-[[4-(4,5-Difluorobenzofuran-7-yl)phenoxy]methyl]benzoyl]-(4-piperidylmethyl)amino]acetic Acid Trifluoroacetate]
12%	CNC(=O)CN(CC(=O)O)C(=O)c1cccc(COc2ccc(-c3cc(F)c(F)c4ccoc34)cc2)c1 [Example 15, 2-[[3-[[4-(4,5-Difluorobenzofuran-7-yl)phenoxy]methyl]benzoyl]-[2-(methylamino)-2-oxo-ethyl]amino]acetic Acid]
14%	CSc1cc(F)c(F)cc1-c1ccc(OCc2cccc(C(=O)N(CCn3cncn3)CC(=O)O)c2)cc1 [Example 70, 2-[[3-[[4-(4,5-Difluoro-2-methylsulfanyl-phenyl)phenoxy]methyl]benzoyl]-[2-(1,2,4-triazol-1-yl)ethyl]amino]acetic Acid]
16%	CSc1cc(F)c(F)cc1-c1ccc(OCc2cccc(C(=O)N(CC(=O)O)Cc3cn(C)cn3)c2)cc1 [Example 74, 2-[[3-[[4-(4,5-Difluoro-2-methylsulfanyl-phenyl)phenoxy]methyl]benzoyl]-[(1-methylimidazol-4-yl)methyl]amino]acetic Acid]
